Format in all cases: cell-based
The target of one assay is human S1P5 receptor (Homo sapiens (Human), UniProt Q9H228). In words: In vitro functional activity (agonism) on human S1P5 receptors, CHO-human-S1P5-Aequorin assay. The note with it: aequorin luminescence, CHO cells, 3 independent experiments. From the text: In Vitro Functional Activity (Agonism) on Human S1P5 Receptors
(§1) The CHO-human-S1P5-Aeqorin assay was bought from Euroscreen, Brussels (Euroscreen, Technical dossier, Human Lysophospholid S1P5 (Edg8) receptor, DNA clone and CHO AequoScreen™ recombinant cell-line, catalog no: ES-593-A, September 2006). Human-S1P5-Aequorin cells express mitochondrial targeted apo-Aequorin. Cells have to be loaded with coelanterazine, in order to reconstitute active Aequorin. After binding of agonists to the human S1P5 receptor the intracellular calcium concentration increases and binding of calcium to the apo-Aequorin/coelenterazine complex leads to an oxidation reaction of coelenterazine, which results in the production of apo-Aequorin, coelenteramide, CO2 and light ([…]max 469 nm). This luminescent response is dependent on the agonist concentration. Luminescence is measured using the MicroBeta Jet (Perkin Elmer). Agonistic effects of compounds are expressed as pEC50. Compounds were tested at a 10 points half log concentration range, and 3 independent experiments were performed in single point's measurements.

The target in the next assay is human S1P3 receptor (Homo sapiens (Human), UniProt Q99500). Description: In vitro functional activity (agonism) on human S1P3 receptors, CHO-human-S1P3-Aequorin assay. The note with it: aequorin luminescence, CHO K1 cells, 3 independent experiments, read-out: S1P3 pEC50 (converted).
human S1P3 receptor, sequence (Q99500 whole entry): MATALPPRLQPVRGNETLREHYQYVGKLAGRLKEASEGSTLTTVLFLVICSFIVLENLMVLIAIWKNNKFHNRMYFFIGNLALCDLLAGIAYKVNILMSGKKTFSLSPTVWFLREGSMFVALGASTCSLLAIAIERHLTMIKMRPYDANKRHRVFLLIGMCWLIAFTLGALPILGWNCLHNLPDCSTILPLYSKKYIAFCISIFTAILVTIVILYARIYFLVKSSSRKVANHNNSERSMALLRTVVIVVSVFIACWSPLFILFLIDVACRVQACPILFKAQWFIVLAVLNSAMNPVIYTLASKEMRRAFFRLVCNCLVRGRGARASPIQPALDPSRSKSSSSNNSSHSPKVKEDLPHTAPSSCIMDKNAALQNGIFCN
Source text: In Vitro Functional Activity (Agonism) on Human S1P3 Receptors
The CHO-human-S1P3-Aeqorin assay (CHO/Gα16/AEQ/h-S1P3) was established at Solvay Pharmaceuticals. The plasmid DNA coding for the S1P3 receptor (accession number in GenBank NM_005226 was purchased from UMR cDNA resource Centre (Rolla, Mo.). The pcDNA3.1/hS1P3 construct carrying the mitochondrially targeted apo-Aeqorin and Gal6 protein was transfected in CHO K1 cell-line.
as §1, with “Human-S1P3-Aequorin” for “The CHO-human-S1P5-Aeqorin assay was bought from Euroscreen, Brussels (Euroscreen, Technical dossier, Human Lysophospholid S1P5 (Edg8) receptor, DNA clone and CHO AequoScreen™ recombinant cell-line, catalog no: ES-593-A, September 2006). Human-S1P5-Aequorin”, “S1P3” for “S1P5”

The target of a further assay is human S1P1 (Homo sapiens (Human), UniProt P21453). Description: In vitro functional activity (agonism) on human S1P1 receptors (method A), CHO-K1-human-S1P1-Aequorin assay.
human S1P1, sequence (P21453 whole entry): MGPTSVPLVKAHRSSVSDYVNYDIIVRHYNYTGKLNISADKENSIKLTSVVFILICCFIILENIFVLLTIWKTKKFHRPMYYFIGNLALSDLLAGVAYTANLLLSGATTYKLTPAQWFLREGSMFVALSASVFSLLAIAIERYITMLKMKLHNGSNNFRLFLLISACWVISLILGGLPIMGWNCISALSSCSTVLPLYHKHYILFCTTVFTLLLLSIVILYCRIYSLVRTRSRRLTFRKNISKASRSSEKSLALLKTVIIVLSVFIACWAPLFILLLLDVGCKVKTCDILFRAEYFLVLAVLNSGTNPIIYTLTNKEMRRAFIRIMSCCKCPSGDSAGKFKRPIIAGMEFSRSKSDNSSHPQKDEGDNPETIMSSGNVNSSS
Source text: In Vitro Functional Activity (Agonism) on Human S1P1 Receptors (Method A)
as §1, with “Human-S1P1-Aequorin” for “The CHO-human-S1P5-Aeqorin assay was bought from Euroscreen, Brussels (Euroscreen, Technical dossier, Human Lysophospholid S1P5 (Edg8) receptor, DNA clone and CHO AequoScreen™ recombinant cell-line, catalog no: ES-593-A, September 2006). Human-S1P5-Aequorin”, “S1P1” for “S1P5”, “2” for “3”

Where [1] appears, read: agonism, determined using method A (aequorin luminescence, CHO-K1 cells), 2 independent experiments, read-out: S1P1^A pEC50 (converted).

Experimental findings from patent US10179791B2, “Spiro-cyclic amine derivatives as S1P modulators” (AbbVie B.V., priority 2010, dated 2019) are described below.

Structures can show the parent of a compound that is named as a salt. Where two headings read alike, the source gives them in different places.

human S1P5 receptor, sequence (Q9H228 whole entry): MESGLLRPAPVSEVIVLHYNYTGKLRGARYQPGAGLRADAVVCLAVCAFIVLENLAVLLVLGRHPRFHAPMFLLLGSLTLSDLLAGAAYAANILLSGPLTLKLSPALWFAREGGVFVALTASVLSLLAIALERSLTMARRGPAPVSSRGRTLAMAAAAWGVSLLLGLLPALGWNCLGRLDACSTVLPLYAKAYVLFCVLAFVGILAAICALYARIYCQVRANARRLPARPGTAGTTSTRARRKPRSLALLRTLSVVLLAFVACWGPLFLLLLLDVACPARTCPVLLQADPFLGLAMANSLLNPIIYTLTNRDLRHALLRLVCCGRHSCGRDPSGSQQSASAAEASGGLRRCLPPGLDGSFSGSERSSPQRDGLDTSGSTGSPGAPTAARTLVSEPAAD

Take `O=C(O)CCN1CCC2(CC1)COc1cc(OCc3c(F)cccc3C3CC3)ccc12` [Compound 253, 3-{6-[(2-cyclopropyl-6-fluorophenyl)methoxy]-2H-spiro[1-benzofuran-3,4′-piperidine]-1′-yl}propanoic acid]: the “S1P5 pEC50” value on human S1P5 receptor is reported as 7.7. Moreover, the EC50 was more than 10 µM at human S1P3 receptor and 2.51 µM on human S1P1 (setting [1]).
On the same counts, the results for `O=C(O)CCN1CCCC2(COc3cc(OCc4c(Cl)cccc4Cl)ccc32)C1` (centres unmarked) [Compound 321, 3-{6-[(2,6-Dichlorophenyl)methoxy]-2H-spiro[1-benzofuran-3,3′-piperidine]-1′-yl}propanoic acid hydrochloride] are 7.1, more than 10 µM and more than 31.6 µM.
On the same counts, the results for `O=C(O)CCN1CCC2(CC1)COc1cc(OCc3c(Cl)cccc3Cl)c(F)cc12` [Compound 289, 3-{6-[(2,6-Dichlorophenyl)methoxy]-5-fluoro-2H-spiro[1-benzofuran-3,4′-piperidine]-1′-yl}propanoic acid] are 7.5, more than 10 µM and more than 31.6 µM.
On the same counts, the results for `CCc1cccc(Cl)c1COc1ccc2c(c1)OCC21CCN(CC(=O)O)CC1` [Compound 111, 2-{6-[(2-Chloro-6-ethylphenyl)methoxy]-2H-spiro[1-benzofuran-3,4′-piperidine]-1′-yl}acetic acid hydrochloride] are 7.6, 2 µM and more than 10 µM.
Turning to `O=C(O)CCN1CCC2(CC1)COc1cc(OCc3c(Cl)cccc3Cl)ccc12` [Compound 29, 3-{6-[(2,6-Dichlorophenyl)methoxy]-2H-spiro[1-benzofuran-3,4′-piperidine]-1′-yl}propanoic acid hydrochloride], the “S1P5 pEC50” value at human S1P5 receptor is reported as 7. For the same compound, the EC50 at human S1P3 receptor was more than 31.6 µM; on human S1P1 it was more than 10 µM.
Consider `O=C(O)CN1CCC2(CC1)COc1cc(OCc3c(Cl)cc(Cl)cc3Cl)ccc12` [Compound 110, 2-{6-[(2,4,6-Trichlorophenyl)methoxy]-2H-spiro[1-benzofuran-3,4′-piperidine]-1′-yl}acetic acid hydrochloride], for which the “S1P5 pEC50” value on human S1P5 receptor stood at 7.8. Moreover, the EC50 at human S1P3 receptor was 2 µM; on human S1P1 (setting [1]), more than 10 µM.
On the same counts, the results for `O=C(O)CCN1CCC2(CC1)COc1c2ccc(OCc2c(Cl)cc(Cl)cc2Cl)c1F` [Compound 132, 3-{7-Fluoro-6-[(2,4,6-trichlorophenyl)methoxy]-2H-spiro[1-benzofuran-3,4′-piperidine]-1′-yl}propanoic acid hydrochloride] are 8.3, 2 µM and more than 31.6 µM.
On the same counts, the results for `O=C(O)CCN1CCC2(CC1)OCc1cc(OCc3c(Cl)cccc3Cl)ccc12` [Compound 203, 3-{5-[(2,6-Dichlorophenyl)methoxy]-3-H-spiro[2-benzofuran-1,4′-piperidine]-1′-yl}propanoic acid hydrochloride] are 6.7, more than 10 µM and more than 10 µM.
The matching figures for `CCc1cccc(Cl)c1COc1ccc2c(c1F)OCC21CCN(CCC(=O)O)CC1` [Compound 136, 3-{6-[(2-Chloro-6-ethylphenyl)methoxy]-7-fluoro-2H-spiro[1-benzofuran-3,4′-piperidine]-1′-yl}propanoic acid hydrochloride]: 8, more than 10 µM and 1.26 µM.
Turning to `O=C(O)CCN1CCC2(CC1)COc1cc(SCc3c(Cl)cc(Cl)cc3Cl)ccc12` [Compound 143, 3-(6-{[(2,4,6-Trichlorophenyl)methyl]sulfanyl}-2H-spiro[1-benzofuran-3,4′-piperidine]-1′-yl}propanoic acid hydrochloride], on human S1P5 receptor, the “S1P5 pEC50” value is 7.5. The EC50 at human S1P1 (setting [1]) is more than 10 µM.
`CCc1cccc(CC)c1COc1ccc2c(c1)OCC21CCN(CCC(=O)O)CC1` [Compound 258, 3-{6-[(2,6-diethylphenyl)methoxy]-2H-spiro[1-benzo-furan-3,4′-piperidine]-1′-yl}propanoic acid]: the “S1P5 pEC50” value at human S1P5 receptor is given as 7.8. For the same compound, the results for the EC50 on human S1P3 receptor and on human S1P1 were more than 10 µM and 2.51 µM, respectively.
In the case of `O=C(O)CCN1CCC2(CC1)COc1cc(C#Cc3ccccc3)ccc12` [Compound 303, 3-[6-(2-Phenylethynyl)-2H-spiro[1-benzofuran-3,4′-piperidine]-1′-yl]propanoic acid hydrochloride], the “S1P5 pEC50” value on human S1P5 receptor is reported as 7.6. For the same compound, the values for the EC50 at human S1P3 receptor and on human S1P1 (setting [1]) were more than 10 µM and more than 31.6 µM, respectively.
`O=C(O)CCN1CCC2(CC1)COc1cc(SCc3c(Cl)cccc3C3CC3)ccc12` [Compound 141, 3-(6-{[(2-Chloro-6-cyclopropylphenyl)methyl]sulfanyl}-2H-spiro[1-benzofuran-3,4′-piperidine]-1′-yl}propanoic acid hydrochloride]: the “S1P5 pEC50” value on human S1P5 receptor is recorded as 8.2. For the same compound, the EC50 on human S1P3 receptor is more than 10 µM; on human S1P1 (setting [1]), 0.316 µM.
For the compound `CC(C)c1cccc(F)c1COc1ccc2c(c1)OCC21CCN(CCC(=O)O)CC1` [Compound 252, 3-(6-{[2-fluoro-6-(propan-2-yl)phenyl]methoxy}-2H-spiro[1-benzofuran-3,4′-piperidine]-1′-yl)propanoic acid], the EC50 at human S1P3 receptor is 5.01 µM.
For the compound `CCCCCCCCOc1ccc2c(c1F)OCC21CCN(CCC(=O)O)CC1` [Compound 277, 3-[7-fluoro-6-(octyloxy)-2H-spiro[1-benzofuran-3,4′-piperidine]-1′-yl]propanoic acid], the “S1P5 pEC50” value on human S1P5 receptor is 7.8. For the same compound, the EC50 was more than 10 µM on human S1P3 receptor and 0.0794 µM on human S1P1 (setting [1]).
With `O=C(O)CCN1CCCC2(COc3cc(OCc4c(Cl)cccc4C4CC4)ccc32)C1` (centres unmarked) [Compound 317, 3-{6-[(2-Chloro-6-cyclopropylphenyl)methoxy]-2H-spiro[1-benzofuran-3,3′-piperidine]-1′-yl}propanoic acid hydrochloride], on human S1P5 receptor, the “S1P5 pEC50” value was 7. Further, the EC50 is more than 10 µM at human S1P3 receptor and more than 31.6 µM at human S1P1 (setting [1]).
Turning to `O=C(O)CCN1CCCC2(COc3cc(OCc4c(Cl)cccc4C(F)(F)F)ccc32)C1` (centres unmarked) [Compound 326, 3-(6-{[2-Chloro-6-(trifluoromethyl)phenyl]methoxy}-2H-spiro[1-benzofuran-3,3′-piperidine]-1′-yl)propanoic acid], the EC50 is more than 10 µM at human S1P3 receptor and more than 31.6 µM on human S1P1 (setting [1]).
On to `CC(CN1CCC2(CC1)COc1cc(OCc3c(Cl)cc(Cl)cc3Cl)ccc12)C(=O)O` (centres unmarked) [Compound 102, 2-Methyl-3-{6-[(2,4,6-trichlorophenyl)methoxy]-2H-spiro[1-benzofuran-3,4′-piperidine]-1′-yl}propanoic acid hydrochloride], for which, on human S1P5 receptor, the “S1P5 pEC50” value was 7.8. The EC50 on human S1P1 (setting [1]) is 0.631 µM.
On the same counts, the results for `CC(CN1CCC2(CC1)COc1cc(SCc3c(Cl)cccc3Cl)ccc12)C(=O)O` (centres unmarked) [Compound 153, 3-(6-{[(2,6-Dichlorophenyl)methyl]sulfanyl}-2H-spiro[1-benzofuran-3,4′-piperidine]-1′-yl}-2-methylpropanoic acid hydrochloride] are 7.9 and 1 µM.
For the compound `O=C(O)CCN1CCC2(CC1)COc1cc(S(=O)(=O)Cc3c(Cl)cccc3Cl)ccc12` [Compound 299, 3-(6-{[(2,6-Dichlorophenyl)methane]sulfonyl}-2H-spiro[1-benzofuran-3,4′-piperidine]-1′-yl}propanoic acid hydrochloride], at human S1P5 receptor, the “S1P5 pEC50” value is on record as 6. Moreover, the EC50 on human S1P3 receptor was more than 10 µM; at human S1P1 (setting [1]), more than 31.6 µM.
On to `CCc1cccc(Cl)c1CSc1ccc2c(c1F)OCC21CCN(CCC(=O)O)CC1` [Compound 296, hydrochloride], for which the “S1P5 pEC50” value on human S1P5 receptor was determined as 8.7. In addition, at human S1P3 receptor, the EC50 is more than 10 µM.
